According to PubChem BioAssay AID328 (DTP/NCI, 2004):
“And” between values parts separate entries of the source, which are not always exact repeats. Identical values can stand only once. Toxic doses and inconclusive results are not listed.

System: BDF1 mice, P388 leukemia ip, median survival T/C
Assay: NCI In Vivo Anticancer Drug Screen. Data for tumor model P388 Leukemia (intraperitoneal) in B6D2F1 (BDF1) mice
Details: endpoint: median survival time, higher = longer survival
How it was run: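 T/C = treated-group survival ÷ vehicle-control survival; tumour transplanted into mice before dosing.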

[1] = dose: 100.0 mg/kg/injection, schedule: Q01DX009 (ip), vehicle: saline
[2] = dose: 50.0 mg/kg/injection, schedule: Q01DX009 (ip), vehicle: saline with Tween-80

O=C(O)CC(NC(=O)CP(=O)(O)O)C(=O)O (stereo not drawn)
T/C (dose: 50.0 mg/kg/injection, schedule: Q01DX009 (ip), vehicle: saline): 117 % of control
T/C [1]: 118 % of control
T/C (dose: 100.0 mg/kg/injection, schedule: Q01DX009 (ip), vehicle: water): 100 % of control
T/C (dose: 180.0 mg/kg/injection, schedule: Q04DX003 (ip), vehicle: saline): 118 % of control
T/C (dose: 200.0 mg/kg/injection, schedule: Q01DX009 (ip), vehicle: saline): 157 % of control
T/C (dose: 200.0 mg/kg/injection, schedule: Q01DX009 (ip), vehicle: water): 109 % of control
T/C (dose: 300.0 mg/kg/injection, schedule: Q01DX009 (ip), vehicle: saline): 109 % of control
T/C (dose: 300.0 mg/kg/injection, schedule: Q01DX009 (ip), vehicle: water): 106 % of control
T/C (dose: 300.0 mg/kg/injection, schedule: Q04DX003 (ip), vehicle: saline): 109 % of control
T/C (dose: 400.0 mg/kg/injection, schedule: Q01DX009 (ip), vehicle: saline): 96 % of control
T/C (dose: 500.0 mg/kg/injection, schedule: Q04DX003 (ip), vehicle: saline): 122 % of control
T/C (dose: 600.0 mg/kg/injection, schedule: Q04DX003 (ip), vehicle: saline): 118 % of control
T/C (dose: 750.0 mg/kg/injection, schedule: Q04DX003 (ip), vehicle: saline): 163 % of control
T/C (dose: 833.0 mg/kg/injection, schedule: Q04DX003 (ip), vehicle: saline): 100 % of control
T/C (dose: 1000.0 mg/kg/injection, schedule: Q04DX003 (ip), vehicle: saline): 85 % of control
T/C (dose: 1500.0 mg/kg/injection, schedule: Q04DX003 (ip), vehicle: saline): 64 % of control

CC(C)(C)C1C2N1C1(c3ccccc3)OC2(c2ccccc2)c2ccccc21 (stereo not drawn)
T/C (dose: 50.0 mg/kg/injection, schedule: Q01DX009 (ip), vehicle: Klucel (hydroxypropylcellulose) (HPC)): 106 % of control
T/C (dose: 100.0 mg/kg/injection, schedule: Q01DX009 (ip), vehicle: Klucel (hydroxypropylcellulose) (HPC)): 100 % of control
T/C (dose: 200.0 mg/kg/injection, schedule: Q01DX009 (ip), vehicle: Klucel (hydroxypropylcellulose) (HPC)): 104 % of control

CCO/C=C1\SC(=S)N(c2ccco2)C1=O
T/C (dose: 5.56 mg/kg/injection, schedule: Q01DX009 (ip), vehicle: saline with Tween-80): 104 % of control
T/C (dose: 8.33 mg/kg/injection, schedule: Q01DX009 (ip), vehicle: saline with Tween-80): 104 % of control
T/C (dose: 12.5 mg/kg/injection, schedule: Q01DX009 (ip), vehicle: saline with Tween-80): 108 % of control
T/C (dose: 18.7 mg/kg/injection, schedule: Q01DX009 (ip), vehicle: saline with Tween-80): 116 % of control
T/C (dose: 22.0 mg/kg/injection, schedule: Q01DX009 (ip), vehicle: saline with Tween-80): 150 % of control
T/C (dose: 30.0 mg/kg/injection, schedule: Q01DX009 (ip), vehicle: saline): 116 % of control
T/C (dose: 44.0 mg/kg/injection, schedule: Q01DX009 (ip), vehicle: saline): 100 % of control
T/C [2]: 100 % of control
T/C (dose: 66.0 mg/kg/injection, schedule: Q01DX009 (ip), vehicle: saline): 116 % of control
T/C [1]: 116 % of control

C1CCC2C[N-]CCC2C1.C1CCC2C[N-]CCC2C1.C1CCC2C[N-]CCC2C1.C1CCC2C[N-]CCC2C1.[Cl][Rh][Cl] (stereo not drawn)
T/C (dose: 0.13 mg/kg/injection, schedule: Q01DX009 (ip), vehicle: saline): 95 % of control
T/C (dose: 0.25 mg/kg/injection, schedule: Q01DX009 (ip), vehicle: saline): 104 % of control
T/C (dose: 0.39 mg/kg/injection, schedule: Q01DX009 (ip), vehicle: saline with Tween-80): 115 % of control
T/C (dose: 0.5 mg/kg/injection, schedule: Q01DX009 (ip), vehicle: saline): 119 % of control
T/C (dose: 0.78 mg/kg/injection, schedule: Q01DX009 (ip), vehicle: saline with Tween-80): 115 % of control
T/C (dose: 0.88 mg/kg/injection, schedule: Q01DX009 (ip), vehicle: saline): 153 % of control
T/C (dose: 1.33 mg/kg/injection, schedule: Q01DX009 (ip), vehicle: saline): 174 % of control
T/C (dose: 1.56 mg/kg/injection, schedule: Q01DX009 (ip), vehicle: saline with Tween-80): 150 % of control
T/C (dose: 2.0 mg/kg/injection, schedule: Q01DX009 (ip), vehicle: saline): 153 % of control
T/C (dose: 2.66 mg/kg/injection, schedule: Q01DX009 (ip), vehicle: saline): 159 % of control
T/C (dose: 3.12 mg/kg/injection, schedule: Q01DX009 (ip), vehicle: saline with Tween-80): 185 % of control
T/C (dose: 4.0 mg/kg/injection, schedule: Q01DX009 (ip), vehicle: saline): 168 % of control and 170 % of control
T/C (dose: 6.0 mg/kg/injection, schedule: Q01DX009 (ip), vehicle: saline): 100 % of control

CCCCCCc1ccccc1
T/C (dose: 100.0 mg/kg/injection, schedule: Q04DX003 (ip), vehicle: saline with Tween-80): 109 % of control
T/C (dose: 200.0 mg/kg/injection, schedule: Q04DX003 (ip), vehicle: saline with Tween-80): 109 % of control
T/C (dose: 400.0 mg/kg/injection, schedule: Q04DX003 (ip), vehicle: saline with Tween-80): 118 % of control

Cn1c(-c2ccccc2)nc2ccccc2c1=O
T/C [2]: 90 % of control
T/C (dose: 100.0 mg/kg/injection, schedule: Q01DX009 (ip), vehicle: saline with Tween-80): 97 % of control
T/C (dose: 200.0 mg/kg/injection, schedule: Q01DX009 (ip), vehicle: saline with Tween-80): 101 % of control

C/C(=C/CC(=O)O)C(=O)O
T/C (dose: 12.5 mg/kg/injection, schedule: Q04DX003 (ip), vehicle: water): 119 % of control
T/C (dose: 25.0 mg/kg/injection, schedule: Q04DX003 (ip), vehicle: water): 97 % of control
T/C (dose: 50.0 mg/kg/injection, schedule: Q04DX003 (ip), vehicle: water): 97 % of control
T/C (dose: 100.0 mg/kg/injection, schedule: Q04DX003 (ip), vehicle: water): 103 % of control
T/C (dose: 200.0 mg/kg/injection, schedule: Q04DX003 (ip), vehicle: water): 122 % of control
